Values of other authors in PMC9516332 (Frontiers in Oncology, 2022).
Read-outs that look alike come from different tables or passages of the source.

How the values were obtained:
Conditions in all cases: cited from earlier work
[1] = target: panel of 255 wild-type kinases (Homo sapiens, UniProt Q15303)
[2] = target: T1, panel of 255 wild-type kinases (Homo sapiens, UniProt P21709)
T1 sequence (P21709 26-976): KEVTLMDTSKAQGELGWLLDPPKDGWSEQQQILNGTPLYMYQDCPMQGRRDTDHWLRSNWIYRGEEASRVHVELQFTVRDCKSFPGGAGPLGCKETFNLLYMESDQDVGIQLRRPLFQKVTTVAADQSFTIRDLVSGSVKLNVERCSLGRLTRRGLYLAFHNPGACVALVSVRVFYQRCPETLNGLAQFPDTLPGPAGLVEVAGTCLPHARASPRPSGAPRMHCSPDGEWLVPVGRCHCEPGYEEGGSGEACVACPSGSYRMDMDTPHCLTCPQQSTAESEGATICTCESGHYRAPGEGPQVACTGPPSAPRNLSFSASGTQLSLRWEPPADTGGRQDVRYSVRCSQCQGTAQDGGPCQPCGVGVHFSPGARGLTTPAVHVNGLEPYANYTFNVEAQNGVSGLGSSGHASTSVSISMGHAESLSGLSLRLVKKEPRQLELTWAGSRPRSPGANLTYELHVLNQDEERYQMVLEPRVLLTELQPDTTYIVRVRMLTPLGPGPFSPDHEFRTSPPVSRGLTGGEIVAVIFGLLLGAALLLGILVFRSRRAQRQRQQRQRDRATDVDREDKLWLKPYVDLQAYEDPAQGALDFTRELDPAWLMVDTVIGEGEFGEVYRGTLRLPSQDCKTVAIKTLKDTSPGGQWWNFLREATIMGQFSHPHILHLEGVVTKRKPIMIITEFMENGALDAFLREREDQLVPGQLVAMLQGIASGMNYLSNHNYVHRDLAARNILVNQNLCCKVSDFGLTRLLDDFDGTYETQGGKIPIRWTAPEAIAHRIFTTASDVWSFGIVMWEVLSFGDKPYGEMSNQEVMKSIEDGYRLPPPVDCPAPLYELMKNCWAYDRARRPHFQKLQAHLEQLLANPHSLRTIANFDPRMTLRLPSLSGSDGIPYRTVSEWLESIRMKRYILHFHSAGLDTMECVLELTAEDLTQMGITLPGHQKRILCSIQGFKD

[3] = target: T2, panel of 255 wild-type kinases (Homo sapiens, UniProt Q02156)
T2 sequence (Q02156 1-737): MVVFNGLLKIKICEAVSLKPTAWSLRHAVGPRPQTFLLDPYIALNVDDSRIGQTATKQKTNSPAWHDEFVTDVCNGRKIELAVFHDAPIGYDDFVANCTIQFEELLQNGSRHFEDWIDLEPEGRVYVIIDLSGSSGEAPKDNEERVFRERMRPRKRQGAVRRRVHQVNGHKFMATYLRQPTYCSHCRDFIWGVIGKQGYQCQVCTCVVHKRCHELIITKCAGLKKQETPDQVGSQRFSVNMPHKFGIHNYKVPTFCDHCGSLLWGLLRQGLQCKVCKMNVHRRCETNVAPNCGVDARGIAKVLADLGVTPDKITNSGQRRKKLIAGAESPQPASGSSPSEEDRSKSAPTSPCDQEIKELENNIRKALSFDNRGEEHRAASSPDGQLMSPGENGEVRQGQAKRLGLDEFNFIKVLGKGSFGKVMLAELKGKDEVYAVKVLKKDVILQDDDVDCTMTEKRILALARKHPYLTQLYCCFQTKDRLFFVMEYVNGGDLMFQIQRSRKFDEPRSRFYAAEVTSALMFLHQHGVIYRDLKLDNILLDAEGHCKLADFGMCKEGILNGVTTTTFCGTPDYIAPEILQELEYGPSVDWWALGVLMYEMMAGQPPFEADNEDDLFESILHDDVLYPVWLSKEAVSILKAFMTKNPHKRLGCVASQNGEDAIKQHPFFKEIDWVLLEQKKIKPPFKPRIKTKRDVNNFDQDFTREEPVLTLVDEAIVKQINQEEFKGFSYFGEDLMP

[4] = target: panel of 255 wild-type kinases (Homo sapiens, UniProt P06213)
[5] = target: panel of 255 wild-type kinases (Homo sapiens, UniProt P23458)
[6] = target: panel of 255 wild-type kinases (Homo sapiens, UniProt Q86Z02)
[7] = target: panel of 255 wild-type kinases (Homo sapiens, UniProt Q9NYY3)
[8] = target: panel of 255 wild-type kinases (Homo sapiens, UniProt Q05655)
[9] = target: panel of 255 wild-type kinases (Homo sapiens, UniProt P29376)
[10] = kinase HER4, 1 µmol/L single concentration, ref DOI: 10.1158/1535-7163.MCT-18-0877
[11] = kinase EPHA1, 1 µmol/L single concentration, ref DOI: 10.1158/1535-7163.MCT-18-0877
[12] = kinase PKCε, 1 µmol/L single concentration, ref DOI: 10.1158/1535-7163.MCT-18-0877
[13] = kinase INSR, 1 µmol/L single concentration, ref DOI: 10.1158/1535-7163.MCT-18-0877
[14] = kinase JAK1, 1 µmol/L single concentration, ref DOI: 10.1158/1535-7163.MCT-18-0877
[15] = kinase HIPK1, 1 µmol/L single concentration, ref DOI: 10.1158/1535-7163.MCT-18-0877
[16] = kinase PLK2, 1 µmol/L single concentration, ref DOI: 10.1158/1535-7163.MCT-18-0877
[17] = kinase PKCδ, 1 µmol/L single concentration, ref DOI: 10.1158/1535-7163.MCT-18-0877
[18] = kinase LTK, 1 µmol/L single concentration, ref DOI: 10.1158/1535-7163.MCT-18-0877

| Compound | %-inhibition at 1 µmol/L, PKCδ [8] [%] | %-inhibition at 1 µmol/L, HER4 [1, 10] [%] | %-inhibition at 1 µmol/L, EPHA1 [2, 11] [%] | %-inhibition at 1 µmol/L, PKCε [3, 12] [%] | %-inhibition at 1 µmol/L, INSR [4, 13] [%] | %-inhibition at 1 µmol/L, JAK1 [5, 14] [%] | %-inhibition at 1 µmol/L, HIPK1 [6, 15] [%] | %-inhibition at 1 µmol/L, PLK2 [7, 16] [%] | %-inhibition at 1 µmol/L, PKCδ [8, 17] [%] | %-inhibition at 1 µmol/L, LTK [9, 18] [%] | also measured |
| --- | --- | --- | --- | --- | --- | --- | --- | --- | --- | --- | --- |
| COc1cc(N2CCC(N3CCN(C)CC3)CC2)ccc1Nc1ncc(Cl)c(Nc2ccccc2P(C)(C)=O)n1 [brigatinib] | 34 | – | – | – | – | – | – | – | – | – | %-inhibition at 1 µmol/L, HER4 [1]: 99%; %-inhibition at 1 µmol/L, EPHA1 [2]: 61%; %-inhibition at 1 µmol/L, PKCε [3]: 39%; %-inhibition at 1 µmol/L, INSR [4]: 101%; %-inhibition at 1 µmol/L, JAK1 [5]: 31%; %-inhibition at 1 µmol/L, HIPK1 [6]: 11%; %-inhibition at 1 µmol/L, PLK2 [7]: 0.275%; %-inhibition at 1 µmol/L, LTK [9]: 100% |
| CC(=O)Nc1cccc(-n2c(=O)n(C3CC3)c(=O)c3c(Nc4ccc(I)cc4F)n(C)c(=O)c(C)c32)c1 [trametinib] | – | – | – | – | – | – | – | – | – | – | %-inhibition at 1 µmol/L, HER4 ([1]; kinase HER4, 1 µmol/L single concentration, ref DOI: 10.1371/journal.pone.0092146): 2.34%; %-inhibition at 1 µmol/L, EPHA1 ([2]; kinase EPHA1, 1 µmol/L single concentration, ref DOI: 10.1371/journal.pone.0092146): -1.61%; %-inhibition at 1 µmol/L, PKCε ([3]; kinase PKCε, 1 µmol/L single concentration, ref DOI: 10.1371/journal.pone.0092146): 6%; %-inhibition at 1 µmol/L, INSR ([4]; kinase INSR, 1 µmol/L single concentration, ref DOI: 10.1371/journal.pone.0092146): -30%; %-inhibition at 1 µmol/L, JAK1 ([5]; kinase JAK1, 1 µmol/L single concentration, ref DOI: 10.1371/journal.pone.0092146): -1.83%; %-inhibition at 1 µmol/L, HIPK1 ([6]; kinase HIPK1, 1 µmol/L single concentration, ref DOI: 10.1371/journal.pone.0092146): -3.71%; %-inhibition at 1 µmol/L, PLK2 ([7]; kinase PLK2, 1 µmol/L single concentration, ref DOI: 10.1371/journal.pone.0092146): -1.65%; %-inhibition at 1 µmol/L, PKCδ ([8]; kinase PKCδ, 1 µmol/L single concentration, ref DOI: 10.1371/journal.pone.0092146): -4.75%; %-inhibition at 1 µmol/L, LTK ([9]; kinase LTK, 1 µmol/L single concentration, ref DOI: 10.1371/journal.pone.0092146): -7% |
| CC#CC(=O)N1CCC[C@H]1c1nc(-c2ccc(C(=O)Nc3ccccn3)cc2)c2c(N)nccn12 [acalabrutinib] | – | 78 | -0.591 | -9 | -4.67 | -13 | -15 | 2.47 | -9 | 10 | – |
| C=CC(=O)Nc1cc(Nc2nccc(-c3cn(C)c4ccccc34)n2)c(OC)cc1N(C)CCN(C)C [osimertinib] | – | 96 | 13 | -12 | 86 | -6 | 34 | 1.06 | 16 | 97 | – |
| CO[C@@H]1[C@H](N(C)C(=O)c2ccccc2)C[C@H]2O[C@]1(C)n1c3ccccc3c3c4c(c5c6ccccc6n2c5c31)C(=O)NC4 [midostaurin] | 93 | 77 | 9 | 84 | 35 | 97 | 12 | 2.68 | – | 90 | – |
| C=CC(=O)N1CCC[C@@H](n2nc(-c3ccc(Oc4ccccc4)cc3)c3c(N)ncnc32)C1 [ibrutinib] | – | 99 | 50 | 8 | 9.51 | -10 | 4.26 | 1.72 | 0.525 | 2.76 | – |
